Experimental data as given in ChEMBL document CHEMBL4715839, “Structure-activity relationships for binding of 4-substituted triazole-phenols to macrophage migration inhibitory factor (MIF)” (Eur J Med Chem, 2020).

Columns and labels:
[1] = Solubility of compound in pH 7.4 PBS buffer by shake-flask method; format: physicochemical
[2] = Solubility of compound at >=50 uM; format: physicochemical
[3] = biological target: T1, Macrophage migration inhibitory factor (Homo sapiens, UniProt P14174); assay: (§1) Inhibition of C-terminal His-tagged recombinant human MIF tautomerase activity expressed in Escherichia coli BL21 using 4-hydroxyphenyl pyruvic acid as substrate preincubated for 15 mins followed by substrate addition and measured for 10 mins in presence of 0.5 mM EDTA by UV absorbance based Cheng-Prusoff equation analysis
T1 sequence (P14174 whole entry): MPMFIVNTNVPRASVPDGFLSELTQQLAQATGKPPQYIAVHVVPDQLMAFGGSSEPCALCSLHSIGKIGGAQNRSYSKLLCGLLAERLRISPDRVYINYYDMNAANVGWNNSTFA

[4] = biological target: T1, Macrophage migration inhibitory factor; assay: Inhibition of C-terminal His-tagged recombinant human MIF tautomerase activity expressed in Escherichia coli BL21 using 4-hydroxyphenyl pyruvic acid as substrate preincubated for 15 mins followed by substrate addition and measured for 10 mins in presence of 0.5 mM EDTA by UV absorbance analysis
[5] = biological target: T1, Macrophage migration inhibitory factor; assay: Binding affinity to RED-Tris-NTA-labelled C-terminal His-tagged recombinant human MIF tautomerase activity expressed in Escherichia coli BL21 by microscale thermophoresis assay
[6] = biological target: T1, Macrophage migration inhibitory factor; assay: as §1, with “absence” for “presence”, “of” for “of 0.5 mM”
[7] = biological target: T1, Macrophage migration inhibitory factor; assay: Inhibition of recombinant human MIF tautomerase activity expressed in Escherichia coli using 4-hydroxyphenyl pyruvic acid as substrate preincubated for 30 mins followed by substrate addition and measured for 175 secs

| SMILES | Ki [3] [µM] | IC50 [4] [µM] | further results |
| --- | --- | --- | --- |
| Oc1ccc(-n2cc(-c3ccc4ccccc4n3)nn2)cc1 | – | – | solubility thermodynamic [1]: 2.2 µg/mL |
| O=C(NCc1cn(-c2ccc(O)c(F)c2)nn1)c1cc2cc(Cl)ccc2[nH]1 | 0.96 | – | solubility [2]: Insoluble; solubility thermodynamic [1]: 28 µM |
| O=C(NCc1cn(-c2ccc(O)cc2)nn1)c1ccc[nH]1 | 30 | 43 | – |
| O=C(NCc1cn(-c2ccc(O)cc2)nn1)c1ccc(F)cc1 | 36 | 53 | – |
| O=C(Cc1cc2ccccc2[nH]1)NCc1cn(-c2ccc(O)cc2)nn1 | 43 | 62 | – |
| O=C(NCc1cn(-c2ccc(O)c(F)c2)nn1)c1cc2ccccc2[nH]1 | 3.3 | 4.8 | solubility thermodynamic [1]: 41.4 µM; Kd [5]: 3.63 µM |
| C#CCCCCc1cn(-c2ccc(O)cc2)nn1 | 6.5 | 9.5 | – |
| Oc1ccc(-n2cc(-c3ccccn3)nn2)cc1 | 5 | 7.2 | Ki [6]: 2.9 µM; Ki [7]: 8.8 µM |
| COC(=O)CCCc1cn(-c2ccc(O)cc2)nn1 | 23 | 33 | – |
| CCCCCc1cn(-c2ccc(O)cc2)nn1 | 6.9 | 10 | – |
| Oc1ccc(-n2cc(C3CCCCC3)nn2)cc1 | 17 | 26 | – |
| O=C(NCc1cn(-c2ccc(O)cc2)nn1)c1ccc(Br)o1 | 26 | 38 | – |
| O=C(NCc1cn(-c2ccc(O)cc2)nn1)c1cccs1 | 28 | 41 | – |
| O=C(NCc1cn(-c2ccc(O)cc2)nn1)c1cc2ccccc2[nH]1 | 6.9 | 10 | – |
| O=C(NCc1cn(-c2ccc(O)cc2)nn1)c1ccccc1 | 23 | 33 | – |
| O=C(CCc1cn(-c2ccc(O)cc2)nn1)Nc1ccccc1 | 32 | 47 | – |
| Cc1ccc(C(=O)NCc2cn(-c3ccc(O)cc3)nn2)s1 | 19 | 28 | – |
